Data as given in publication PMC3102704, “New Classes of Alanine Racemase Inhibitors Identified by High-Throughput Screening Show Antimicrobial Activity against Mycobacterium tuberculosis” (PLoS ONE, 2011).
In brackets after ≈: the same amount, converted by molar mass. Several values for one entry are separate records, joined by “and”; a condition that tells them apart may be missing. Identical values can stand only once. Like-named read-outs stand apart in the source and are kept apart here.

Assays:
M. tuberculosis H37Rv [1] = experiment: Antimicrobial susceptibility in BACTEC MGIT 960 system; type: cell-based, Mycobacterium tuberculosis; details: for Mtb: antimicrobial activity against M. tuberculosis / Mtb: antimicrobial activity against M. tuberculosis (supplement table): M. tuberculosis H37Rv, BACTEC, 50 and 100 µg/ml; for Growth inhibition of M. tuberculosis H37Rv in BACTEC culture tubes: final concentration of 50 and 100 µg/ml
[2] = biological target: T1, M. tuberculosis alanine racemase (Mycobacterium tuberculosis, UniProt P9WQA9); experiment: biochemical; type: biochemical; details: D-alanine 0.5-2.5 mM, inhibitor 0.01 to 0.98 mM
T1 sequence (P9WQA9 whole entry): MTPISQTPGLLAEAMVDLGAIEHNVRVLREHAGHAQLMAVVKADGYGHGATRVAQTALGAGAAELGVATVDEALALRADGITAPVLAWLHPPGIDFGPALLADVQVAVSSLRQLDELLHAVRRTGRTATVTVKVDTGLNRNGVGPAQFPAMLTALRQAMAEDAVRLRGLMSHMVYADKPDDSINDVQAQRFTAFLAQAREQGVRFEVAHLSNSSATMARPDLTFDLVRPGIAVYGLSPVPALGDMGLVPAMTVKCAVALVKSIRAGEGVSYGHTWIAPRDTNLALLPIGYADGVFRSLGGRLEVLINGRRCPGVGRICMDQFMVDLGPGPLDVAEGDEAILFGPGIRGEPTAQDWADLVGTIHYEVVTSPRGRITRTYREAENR

[3] = biological target: T1, M. tuberculosis alanine racemase; type: binding; details: 4 µM alanine racemase with 1 mM inhibitor
Description: Electrospray ionization mass spectrometry (ESMS) was performed to detect direct interactions of inhibitors with enzyme. A mixture of 15 µl of sample (4 µM alanine racemase with 1 mM inhibitors) was diluted with 15 µl 2% acetonitrile/0.1% formic acid. Samples were then de-salted using C4 ZipTip, eluted into 15 µl 60% acetonitrile/0.1% formic acid, and directly injected into Qtof-micro MS instrument (Waters Corp., Milford, MA).

M. tuberculosis H37Rv [4] = experiment: Microbroth dilution MIC determination; type: cell-based, Mycobacterium tuberculosis; details: for MIC: M. tuberculosis H37Rv, microbroth dilution, 21 days, read-out: MIC against M. tuberculosis
HeLa cells = experiment: Compound cytotoxicity, WST-1 Cell Proliferation Reagent; type: cell-based; details: for TC50, cytotoxicity in HeLa cells: 48 hours exposure, WST-1
Description: HeLa cells were grown to confluence overnight (37°C, 5% CO2) in Dulbecco's Modified Eagle Medium with 10% fetal bovine serum (Invitrogen, Carlsbad, CA). The following day, 3000 cells were plated into each well of a 96-well plate and grown overnight. Compounds were diluted in culture medium and added to the cells to yield final concentrations of 100, 50, 25, 12.5, and 6.25 µg/ml. The cells were exposed to the compounds for 48 hours, after which the effect on cells was determined using the WST-1 Cell Proliferation Reagent (Roche Applied Science, Indianapolis, IN) according to manufacturer's protocols. Absorbance at 450 nm was used to calculate percent cytotoxicity with respect to a DMSO solvent control. The results were fitted onto a sigmoidal dose-response curve using Prism software to calculate the TC50 (compound concentration that causes 50% cell death).

[5] = biological target: T1, M. tuberculosis alanine racemase; experiment: biochemical; details: 30-minute pre-incubation with inhibitor, triplicate
[6] = Mycobacterium tuberculosis, 504 h

Q: `O=C1Nc2ccccc2C(=O)C1(O)O` [L2-16, 3,3-dihydroxy-1H-quinoline-2,4-dione] was tested. Which “Mtb: antimicrobial activity against M. tuberculosis” value (M. tuberculosis H37Rv [1]) did it give?
A: +

Q: And the “Mtb: antimicrobial activity against M. tuberculosis (supplement table)” value (“Mtb: antimicrobial activity … (supplement table)” for short) (M. tuberculosis H37Rv [1])?
A: +

Q: What about the “Growth inhibition of M. tuberculosis H37Rv in BACTEC culture tubes” value (shortened to “Growth inhibition”) (M. tuberculosis H37Rv [1]) of the same molecule?
A: inhibited growth at both concentrations

Q: What about the Ki [2] of the same molecule?
A: 20 µM

Q: What about the “Nature of inhibitor-enzyme interaction by ESMS” value [3] of the same molecule?
A: reversible

Q: And the MIC (M. tuberculosis H37Rv [4]; [6])?
A: 32.4 µM (≈ 6.26 µg/mL)

Q: And the “TC50, cytotoxicity in HeLa cells” value (HeLa cells)?
A: 33.7 µM

Q: And the “Cytotoxicity relative to MIC” value (HeLa cells; compared with MIC against M. tuberculosis)?
A: cytotoxic at slightly above its MIC

Q: And the IC50 [5]?
A: 5.2 µM

Q: For `O=C(COc1ccccc1O)NO` [L2-03, N-hydroxy-2-(2-hydroxyphenoxy)acetamide], which “Mtb: antimicrobial activity against M. tuberculosis” value (M. tuberculosis H37Rv [1]) is on record?
A: −

Q: What about the “Mtb: antimicrobial activity … (supplement table)” value (M. tuberculosis H37Rv [1]) of the same molecule?
A: -

Q: What about the IC50 [5] of the same molecule?
A: 8.2 µM

Q: Which “Mtb: antimicrobial activity against M. tuberculosis” value (M. tuberculosis H37Rv [1]) does the source give for `Cc1ccc(S(=O)(=O)NN(C)C)cc1` [L2-01, N′,N′,4-trimethylbenzenesulfonohydrazide] here?
A: −

Q: And the “Mtb: antimicrobial activity … (supplement table)” value (M. tuberculosis H37Rv [1])?
A: -

Q: What about the IC50 [5] of the same molecule?
A: 9 µM

Q: Which “Mtb: antimicrobial activity against M. tuberculosis” value (M. tuberculosis H37Rv [1]) does the source give for `CCOC(=O)CCSc1ccccn1` [L2-04, ethyl 3-(pyridin-2-ylthio)propanoate] here?
A: +

Q: What about the “Mtb: antimicrobial activity … (supplement table)” value (M. tuberculosis H37Rv [1]) of the same molecule?
A: +

Q: What about the “Growth inhibition” value (M. tuberculosis H37Rv [1]) of the same molecule?
A: inhibited growth at both concentrations

Q: And the Ki [2]?
A: 38 µM

Q: And the “Nature of inhibitor-enzyme interaction by ESMS” value [3]?
A: reversible

Q: What about the MIC (M. tuberculosis H37Rv [4]; [6]) of the same molecule?
A: 59 µM (≈ 12.5 µg/mL)

Q: And the “TC50, cytotoxicity in HeLa cells” value (HeLa cells)?
A: 229.8 µM

Q: And the IC50 [5]?
A: 2.6 µM

Q: Which results are given for `CN(C)NS(=O)(=O)c1ccc2c(c1)Cc1cc(S(=O)(=O)NN(C)C)ccc1-2` [L2-02, 2-N′,2-N′,7-N′,7-N′-tetramethyl-9H-fluorene-2,7-disulfonohydrazide]?
A: Mtb: antimicrobial activity against M. tuberculosis (M. tuberculosis H37Rv [1]): −; Mtb: antimicrobial activity against M. tuberculosis (supplement table) (M. tuberculosis H37Rv [1]): -; IC50 [5]: 1.6 µM

Q: Which “Mtb: antimicrobial activity against M. tuberculosis” value (M. tuberculosis H37Rv [1]) does the source give for `COc1ccc(NC(=O)c2nc(S(C)(=O)=O)ncc2Cl)cc1Cl` [L2-06, 5-chloro-N-(3-chloro-4-methoxyphenyl)2(methylsulfonyl)pyrimidine-4carboxamide] here?
A: +

Q: What about the “Mtb: antimicrobial activity … (supplement table)” value (M. tuberculosis H37Rv [1]) of the same molecule?
A: +

Q: And the “Growth inhibition” value (M. tuberculosis H37Rv [1])?
A: inhibited growth at both concentrations

Q: What about the Ki [2] of the same molecule?
A: 760 µM

Q: What about the “Nature of inhibitor-enzyme interaction by ESMS” value [3] of the same molecule?
A: irreversible

Q: And the MIC (M. tuberculosis H37Rv [4]; [6])?
A: < 4.5 µM

Q: And the “TC50, cytotoxicity in HeLa cells” value (HeLa cells)?
A: 18.8 µM

Q: And the IC50 [5]?
A: 8.2 µM

Q: `CNC(=O)COc1ccccc1O` [L2-15, 2-(2-hydroxyphenoxy)-N-methylacetamide] was tested. Which “Mtb: antimicrobial activity against M. tuberculosis” value (M. tuberculosis H37Rv [1]) did it give?
A: −

Q: What about the “Mtb: antimicrobial activity … (supplement table)” value (M. tuberculosis H37Rv [1]) of the same molecule?
A: -

Q: What about the IC50 [5] of the same molecule?
A: 5.7 µM

Q: `S=C(Cc1ccccc1)N1CCCCC1` [L2-12, 2-phenyl-1-piperidin-1-ylethanethione] was tested. Which “Mtb: antimicrobial activity against M. tuberculosis” value (M. tuberculosis H37Rv [1]) did it give?
A: +

Q: What about the “Mtb: antimicrobial activity … (supplement table)” value (M. tuberculosis H37Rv [1]) of the same molecule?
A: +

Q: What about the “Growth inhibition” value (M. tuberculosis H37Rv [1]) of the same molecule?
A: inhibited growth at both concentrations

Q: And the Ki [2]?
A: 80 µM

Q: What about the “Nature of inhibitor-enzyme interaction by ESMS” value [3] of the same molecule?
A: irreversible

Q: What about the MIC (M. tuberculosis H37Rv [4]; [6]) of the same molecule?
A: 28.6 µM (≈ 6.27 µg/mL)

Q: And the “TC50, cytotoxicity in HeLa cells” value (HeLa cells)?
A: 406 µM

Q: What about the IC50 [5] of the same molecule?
A: 6 µM

Q: “2-(hydoxyimino)-6-methyl-2H-benzopyran-3-carboxamide [L2-14]” was tested. Which “Mtb: antimicrobial activity against M. tuberculosis” value (M. tuberculosis H37Rv [1]) did it give?
A: −

Q: What about the “Mtb: antimicrobial activity … (supplement table)” value (M. tuberculosis H37Rv [1]) of the same molecule?
A: -

Q: And the IC50 [5]?
A: 2.8 µM

Q: Which “Mtb: antimicrobial activity against M. tuberculosis” value (M. tuberculosis H37Rv [1]) does the source give for `N[C@@H]1CONC1=O` [CS, (4R)-4-amino-3-isoxazolidinone, reference compound] here?
A: +

Q: What about the “Mtb: antimicrobial activity … (supplement table)” value (M. tuberculosis H37Rv [1]) of the same molecule?
A: +

Q: What about the “Nature of inhibitor-enzyme interaction by ESMS” value [3] of the same molecule?
A: irreversible modification of the enzyme

Q: What about the “Increase in the MIC in the presence of D-alanine” value (M. tuberculosis H37Rv [4]; 5 mM D-alanine in the growth medium, data not shown) of the same molecule?
A: 3 fold

Q: What about the MIC (M. tuberculosis H37Rv [4]; [6]) of the same molecule?
A: 6.5 µg/mL and 65 µM

Q: What about the “TC50, cytotoxicity in HeLa cells” value (HeLa cells) of the same molecule?
A: 203 µM

Q: What does the source list for `O=C(O)CSC(=S)Nc1cccnc1` [L2-11, 2-(pyridin-3-ylcarbamothioylsulfanyl)acetic acid]?
A: Mtb: antimicrobial activity against M. tuberculosis (M. tuberculosis H37Rv [1]): −; Mtb: antimicrobial activity against M. tuberculosis (supplement table) (M. tuberculosis H37Rv [1]): -; IC50 [5]: 13.1 µM

Q: How did the “Mtb: antimicrobial activity against M. tuberculosis” value (M. tuberculosis H37Rv [1]) turn out when `CS(=O)(=O)c1ncc(Cl)c(C(=O)NCc2ccccc2)n1` [L2-05, N-benzyl-5-chloro-2-methylsulfonylpyrimidine-4-carboxamide] was run?
A: +

Q: What about the “Mtb: antimicrobial activity … (supplement table)” value (M. tuberculosis H37Rv [1]) of the same molecule?
A: +

Q: What about the “Growth inhibition” value (M. tuberculosis H37Rv [1]) of the same molecule?
A: inhibited growth at both concentrations

Q: What about the Ki [2] of the same molecule?
A: 630 µM

Q: And the “Nature of inhibitor-enzyme interaction by ESMS” value [3]?
A: irreversible

Q: What about the MIC (M. tuberculosis H37Rv [4]; [6]) of the same molecule?
A: 9 µM (≈ 2.93 µg/mL)

Q: And the “TC50, cytotoxicity in HeLa cells” value (HeLa cells)?
A: 20 µM

Q: And the IC50 [5]?
A: 6.8 µM

Q: Which “Mtb: antimicrobial activity against M. tuberculosis” value (M. tuberculosis H37Rv [1]) does the source give for `Cc1ccc(CC(=S)N2CCOCC2)cc1` [L2-07, 2-(4-methylphenyl)-1-morpholin-4-ylethanethione] here?
A: −

Q: What about the “Mtb: antimicrobial activity … (supplement table)” value (M. tuberculosis H37Rv [1]) of the same molecule?
A: -

Q: What about the IC50 [5] of the same molecule?
A: 6.5 µM

Q: How did the “Mtb: antimicrobial activity against M. tuberculosis” value (M. tuberculosis H37Rv [1]) turn out when `COC(=O)c1cccc(C(=O)Oc2ccc(OC(=O)c3cccc(C(=O)OC)n3)c(Cl)c2)n1` [L2-10, 6-O-[3-chloro-4-(6-methoxycarbonylpyridine-2-carbonyl)oxyphenyl]2-O-methyl pyridine-2,6-dicarboxylate] was run?
A: +

Q: What about the “Mtb: antimicrobial activity … (supplement table)” value (M. tuberculosis H37Rv [1]) of the same molecule?
A: +

Q: What about the “Growth inhibition” value (M. tuberculosis H37Rv [1]) of the same molecule?
A: inhibited growth at both concentrations

Q: And the Ki [2]?
A: 680 µM

Q: What about the “Nature of inhibitor-enzyme interaction by ESMS” value [3] of the same molecule?
A: not definitive

Q: What about the MIC (M. tuberculosis H37Rv [4]) of the same molecule?
A: 13.6 µM (≈ 6.4 µg/mL)

Q: And the “TC50, cytotoxicity in HeLa cells” value (HeLa cells)?
A: 157.2 µM

Q: And the IC50 [5]?
A: 1 µM

Q: Which results are given for `CCOc1ccc(CCNC(=O)Cn2sc3nc(C)cc(C)c3c2=O)cc1` [L2-13, 2-(4,6-dimethyl-3-oxo-[1], [2]thiazolo[5,4-b]pyridin-2-yl)-N-[2-(4-ethoxyphenyl)ethyl]acetamide]?
A: Mtb: antimicrobial activity against M. tuberculosis (M. tuberculosis H37Rv [1]): +; Mtb: antimicrobial activity against M. tuberculosis (supplement table) (M. tuberculosis H37Rv [1]): +; Growth inhibition of M. tuberculosis H37Rv in BACTEC culture tubes (M. tuberculosis H37Rv [1]): inhibited growth at both concentrations; Ki [2]: 930 µM; Nature of inhibitor-enzyme interaction by ESMS [3]: irreversible; MIC (M. tuberculosis H37Rv [4]): 16.2 µM (≈ 6.24 µg/mL); TC50, cytotoxicity in HeLa cells (HeLa cells): 36.4 µM; IC50 [5]: 7.7 µM

Q: For `O=C(c1cccs1)c1no[n+]([O-])c1C(=O)c1cccs1` [L2-18, 1,1′-(2-oxido-1,2,5-oxadiazole-3,4-diyl)-bis (1-(2-thienyl))-methanone], which “Mtb: antimicrobial activity against M. tuberculosis” value (M. tuberculosis H37Rv [1]) is on record?
A: −

Q: What about the “Mtb: antimicrobial activity … (supplement table)” value (M. tuberculosis H37Rv [1]) of the same molecule?
A: -

Q: What about the IC50 [5] of the same molecule?
A: 4.9 µM

Q: What does the source list for `COc1ccc(CC(=S)N2CCOCC2)cc1` [L2-09, 2-(4-methoxyphenyl)-1-morpholin-4-ylethanethione]?
A: Mtb: antimicrobial activity against M. tuberculosis (M. tuberculosis H37Rv [1]): −; Mtb: antimicrobial activity against M. tuberculosis (supplement table) (M. tuberculosis H37Rv [1]): -; IC50 [5]: 3.3 µM
